Source: publication PMC7725003, “Systematically Studying the Optimal Amino Acid Distribution Patterns of the Amphiphilic Structure by Using the Ultrashort Amphiphiles” (Frontiers in Microbiology, 2020)
Where no end group is shown, it is not given here.

What was measured:
Gram-positive bacteria [1] = settings: geometric mean of MBCs, 7 Gram-positive strains (Table 2)
S. pullorum 7913 = type: cell-based, Salmonella pullorum; settings: 7913, 24 h
Method in brief: (§1)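 Peptides, diluted in 0.2% BSA, were mixed with mid-logarithmic cells in MHB (0.5–1 × 10^6 CFU/mL) and incubated for 24 h at 37 °C. Absorbance at 492 nm defined MIC as 95% growth inhibition; subculture onto agar overnight gave MBC as >99.9% kill.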

E. faecalis 29212 = type: cell-based, Enterococcus faecalis; settings: 29212, 24 h
Method in brief: as §1

Gram-negative bacteria [2] = settings: geometric mean of MBCs, 9 Gram-negative strains (Table 2)
E. coli K99 = settings: for MIC: MHB, 24 h 37°C, 95% growth inhibition; for MBC: value in brackets, >99.9% of cells killed
Description: (§2) The antimicrobial activities of the peptides were measured using a method adapted from the National Committee for Clinical Laboratory Standards (NCCLS) with some modifications ([Chou et al., 2016]). The specific procedure for these assays has been previously described. In brief, the bacterial cells were grown to a mid-logarithmic phase and diluted in MHB to an ultimate concentration of 0.5–1 × 10^6 CFU mL^–1. Subsequently, the peptides were consecutively diluted in a 0.2% BSA solution and then added to a bacterial solution in a 96-well plate at identical volumes. After incubation for 24 h at 37°C, the MICs were determined to be the lowest peptide concentration that inhibited 95% of the bacterial growth by monitoring the absorbance at 492 nm using a microplate reader. Subsequently, 50 μL of each incubation mixture was further transferred to agar plates and incubated overnight. […] Every assay was reproduced more than 3 times.

E. coli K88 = settings: for MIC: MHB, 24 h 37°C, 95% growth inhibition; for MBC: value in brackets, >99.9% of cells killed
Description: as §2

MRSA 43300 = type: cell-based, methicillin-resistant S. aureus; settings: 43300, 24 h
Method in brief: as §1

Gram-positive bacteria [3] = settings: for GM MIC: geometric mean of MICs, 7 Gram-positive strains (Table 2); for TI, Gram-positive bacteria: therapeutic index TI = MHC/GM MIC
Method in brief: (§3)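 Broth microdilution adapted from NCCLS: mid-log bacteria diluted in MHB to 0.5–1 × 10^6 CFU mL^–1, mixed with peptides serially diluted in 0.2% BSA. After 24 h at 37°C, MIC taken as the lowest concentration inhibiting 95% of growth by absorbance at 492 nm. Assays repeated more than 3 times.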

Gram-negative bacteria [4] = settings: for GM MIC: geometric mean of MICs, 9 Gram-negative strains (Table 2); for TI, Gram-negative bacteria: therapeutic index TI = MHC/GM MIC
Method in brief: as §3

[5] = tested on: Listeria monocytogenes CGMCC 1.1075; type: cell-based; settings: CGMCC 1.1075, 24 h
Method in brief: as §1

S. epidermidis 12228 = type: cell-based, Staphylococcus epidermidis; settings: 12228, 24 h
Method in brief: as §1

E. coli UB1005 = type: cell-based, Escherichia coli; settings: UB1005, 24 h
Method in brief: as §1

E. coli 25922 = type: cell-based, Escherichia coli; settings: 25922, 24 h
Method in brief: as §1

E. coli O78 = type: cell-based, Escherichia coli; settings: O78, 24 h
Method in brief: as §1

P. aeruginosa 27853 = type: cell-based, Pseudomonas aeruginosa; settings: 27853, 24 h
Method in brief: as §1

B. subtilis 63501 = type: cell-based, Bacillus subtilis; settings: 63501, 24 h
Method in brief: as §1

[6] = tested on: all of the tested bacterial strains; assay: Geometric mean of MICs, all tested bacterial strains; type: cell-based; settings: for GM, All: geometric mean of MICs across all tested strains; for TI, All: therapeutic index TI = MHC/GM MIC
Method in brief: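 Mid-log bacteria at 0.5–1 × 10^6 CFU mL^–1 in MHB with peptides serially diluted in 0.2% BSA, 24 h at 37°C. MIC is the lowest concentration giving 95% growth inhibition by A492. MBC is the lowest giving >99.9% kill on agar subculture, and the GM is taken over all strains.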

E. coli ATCC 25922 = assay: Salt sensitivity assay (MIC); type: cell-based, Escherichia coli; settings: for MIC, FeCl3: 4 μM FeCl3; for MIC, NH4Cl: 6 μM NH4Cl; for MIC, ZnCl2: 8 μM ZnCl2; for MIC, MgCl2: 1 mM MgCl2; for MIC, CaCl2: 2 mM CaCl2; for MIC, KCl: 4.5 mM KCl; for MIC, NaCl: 150 mM NaCl; for MIC, Control: no added salt, three independent assays
Method in brief: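 The salt sensitivity of peptides was tested against E. coli ATCC 25922 using a modified NCCLS broth microdilution MIC method. Mid-log bacteria were diluted in MHB to 0.5–1 × 10^6 CFU mL^–1 and mixed in equal volumes with peptides serially diluted in 0.2% BSA in 96-well plates. Physiological salt was added where specified, and the assay was done three independent times.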

S. aureus 29213 [7] = type: cell-based, Staphylococcus aureus; settings: 29213, 24 h
Method in brief: as §1

S. aureus 25923 = type: cell-based, Staphylococcus aureus; settings: 25923, 24 h
Method in brief: as §1

S. aureus 29213 [8] = assay: Salt sensitivity assay (MIC); type: cell-based, Staphylococcus aureus; settings: for MIC, FeCl3: 4 μM FeCl3; for MIC, NH4Cl: 6 μM NH4Cl; for MIC, ZnCl2: 8 μM ZnCl2; for MIC, MgCl2: 1 mM MgCl2; for MIC, CaCl2: 2 mM CaCl2; for MIC, KCl: 4.5 mM KCl; for MIC, NaCl: 150 mM NaCl; for MIC, Control: no added salt, three independent assays
Method in brief: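 MICs determined by broth microdilution in MHB with 0.5–1 × 10^6 CFU/mL, peptides serially diluted in 0.2% BSA, 24 h at 37°C. Medium supplemented with physiological salts (150 mM NaCl, 4.5 mM KCl, 6 μM NH4Cl, 8 μM ZnCl2, 1 mM MgCl2, 2mM CaCl2, 4 μM FeCl3). MIC = lowest concentration inhibiting 95% growth (A492).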

S. typhimurium 14028 = type: cell-based, Salmonella typhimurium; settings: 14028, 24 h
Method in brief: as §1

S. typhimurium 7731 = type: cell-based, Salmonella typhimurium; settings: 7731, 24 h
Method in brief: as §1

LRRLRLRLL-NH2 [L3]
8 µM: MIC (S. pullorum 7913) | MIC (E. coli K88) | MIC (E. coli 25922) | MIC (B. subtilis 63501) | MIC, KCl (E. coli ATCC 25922) | MIC, Control (E. coli ATCC 25922)
32 µM: MBC (E. coli K99) | MBC [5] | MBC (E. coli UB1005) | MBC (E. coli O78) | MIC, MgCl2 (E. coli ATCC 25922) | MIC, CaCl2 (E. coli ATCC 25922) | MIC, NaCl (E. coli ATCC 25922) | MIC (S. typhimurium 7731)
32.00 µM: GM, All [6]
16 µM: MBC (S. pullorum 7913) | MIC (E. coli K99) | MBC (E. coli K88) | MIC [5] | MIC (E. coli UB1005) | MBC (E. coli 25922) | MIC (E. coli O78) | MBC (B. subtilis 63501) | MIC, FeCl3 (E. coli ATCC 25922) | MIC, NH4Cl (E. coli ATCC 25922) | MIC, ZnCl2 (E. coli ATCC 25922)
37.33 µM: GM MBC (Gram-negative bacteria [2])
13.72: TI, Gram-negative bacteria (Gram-negative bacteria [4])
64.00 µM: GM MIC (Gram-positive bacteria [3])
8.00: TI, All [6]
>64 µM: MIC (MRSA 43300) | MIC (S. aureus 29213 [7])
64 µM: MIC (P. aeruginosa 27853) | MIC (S. typhimurium 14028) | MBC (S. typhimurium 7731)
128 µM: MBC (P. aeruginosa 27853) | MBC (S. typhimurium 14028)
78.02 µM: GM MBC (Gram-positive bacteria [1])
> 64 µM: MIC (E. faecalis 29212) | MIC (S. epidermidis 12228) | MIC (S. aureus 25923) | MIC, FeCl3 (S. aureus 29213 [8]) | MIC, NH4Cl (S. aureus 29213 [8]) | MIC, ZnCl2 (S. aureus 29213 [8]) | MIC, MgCl2 (S. aureus 29213 [8]) | MIC, CaCl2 (S. aureus 29213 [8]) | MIC, KCl (S. aureus 29213 [8]) | MIC, NaCl (S. aureus 29213 [8]) | MIC, Control (S. aureus 29213 [8])
4.00: TI, Gram-positive bacteria (Gram-positive bacteria [3])
18.66 µM: GM MIC (Gram-negative bacteria [4])

LRRRLLLLR-NH2 [L6]
64 µM: MIC (E. coli K99) | MIC (E. coli K88) | MIC (E. coli O78) | MBC (B. subtilis 63501)
128.00 µM: GM MBC (Gram-negative bacteria [2])
101.59 µM: GM MIC (Gram-negative bacteria [4])
2.44: TI, Gram-positive bacteria (Gram-positive bacteria [3])
115.93 µM: GM MBC (Gram-positive bacteria [1])
>64 µM: MIC (S. pullorum 7913) | MIC (MRSA 43300) | MIC [5] | MIC (E. coli UB1005) | MIC (S. aureus 29213 [7])
105.00 µM: GM MIC (Gram-positive bacteria [3])
32 µM: MIC (B. subtilis 63501)
103.07 µM: GM, All [6]
> 64 µM: MIC (E. faecalis 29212) | MIC (S. epidermidis 12228) | MIC (E. coli 25922) | MIC (P. aeruginosa 27853) | MIC, FeCl3 (E. coli ATCC 25922) | MIC, NH4Cl (E. coli ATCC 25922) | MIC, ZnCl2 (E. coli ATCC 25922) | MIC, MgCl2 (E. coli ATCC 25922) | MIC, CaCl2 (E. coli ATCC 25922) | MIC, KCl (E. coli ATCC 25922) | MIC, NaCl (E. coli ATCC 25922) | MIC, Control (E. coli ATCC 25922) | MIC (S. aureus 25923) | MIC, FeCl3 (S. aureus 29213 [8]) | MIC, NH4Cl (S. aureus 29213 [8]) | MIC, ZnCl2 (S. aureus 29213 [8]) | MIC, MgCl2 (S. aureus 29213 [8]) | MIC, CaCl2 (S. aureus 29213 [8]) | MIC, KCl (S. aureus 29213 [8]) | MIC, NaCl (S. aureus 29213 [8]) | MIC, Control (S. aureus 29213 [8]) | MIC (S. typhimurium 14028) | MIC (S. typhimurium 7731)
2.48: TI, All [6]
2.52: TI, Gram-negative bacteria (Gram-negative bacteria [4])
128 µM: MBC (E. coli K99) | MBC (E. coli K88) | MBC (E. coli O78)
